Data: article PMC6789782, “Safety Pharmacological Evaluation of the Coffee Component, Caffeoylquinic Acid, and Its Metabolites, Using Ex Vivo and In Vitro Profiling Assays” (Pharmaceuticals, 2019)

Key:
[1] = tested on: ileum isolated from guinea pig; experiment: In vitro Magnus assay, ileum; details: 100 µM; ± SEM; p < 0.05
Protocol: (§1) Guinea pigs (Japan SLC, Inc., Shizuoka, Japan) were anesthetized with pentobarbital sodium (30–50 mg/kg, i.p.) and the stomach fundi, ileums, and colons were dissected after being exsanguinated. Tissues were immediately placed in Tyrode’s solution containing NaCl 136.9 mM, KCl 2.7 mM, MgCl2.6H2O 1.2 mM, CaCl2.2H2O 2.0 mM, NaHCO3 11.9 mM, and D(+)-glucose 5.6 mM, and flushed for luminal content removal. Segments of approximately 2 cm were cut from each tissue and placed in an organ bath containing Tyrode’s solution aerated with O2:CO2 (95:5) at 32 °C. The tissue segments were connected to an isometric transducer (load, 1.0 g) to record the contractions (Nihon Kohden Corporation, Tokyo, Japan).
(§2) Maximum recording period for one condition was 20 min, and the test solution was exchanged when no effect was detected within 3 min. […] The concentration of acetylcholine was set based on preliminary experiments.

Phosphodiesterase PDE4 = experiment: In vitro profiling, functional assay; assay type: biochemical, human; details: 30 µM
Protocol: Binding and functional assays of CGAs with the proteins known to be pharmacological targets related to the CVS, CNS, and GI functions were conducted. […] In the binding assay, we measured the radiation activity of the solution containing filtered proteins that bound to the tested compound or high-affinity ligand, while in the functional assays, we measured the reaction product. The ability of the test compound to interact with the tested targets was measured as the inhibition of ligand binding to the target or reaction product production (% inhibition).

rat hippocampal slices = experiment: Electrophysiological assay of hippocampal slices, population spike (PS) recording
Protocol: All animals were housed and used in accordance with the French and European legislations for animal care. Rats (Janvier Labs, Le Genest-Saint-Isle, France) were euthanized by fast decapitation, without prior anesthesia. The brain was quickly removed and soaked in ice-cold oxygenated buffer containing KCl 2 mM, NaH2PO4 1.2 mM, MgCl2 7 mM, CaCl2 0.5 mM, NaHCO3 26 mM, glucose 11 mM, and sucrose 250 mM. […] During the experiments, slices were perfused with oxygenated artificial cerebrospinal fluid at 37 °C at a rate of 3 mL/min. The tested slice numbers were > 2 for 100 µM, > 4 for 10 µM, and > 6 for 1 µM (follow-up study). All experiments were carried out with 3-dimensional multielectrode array (Qwane Biosciences S.A., Lausanne, Switzerland) and data were recorded with a commercially available multielectrode array set-up from MultiChannel Systems (MCS GmbH, Reutlingen, Germany).
A hippocampal slice was placed on the multielectrode array (100 μm distant electrodes). One electrode was chosen to stimulate schaffer collaterals (SC) at the CA1 border. The stimulus in a monopolar biphasic current pulse (−300 μA for 60 μs followed by +300 μA for 60 μs) was applied at 30-s intervals. An Input/Output (I/O) curve was derived before each experiment to determine the stimulation intensity. Basal stimulation intensity was then set to 100 μA higher than the minimal intensity necessary to induce PS in the pyramidal cell layer.
Then, 1 μM bicuculline, the antagonist of GABAA, was applied in the continuous presence of the compound for an additional 40-min. Control bicuculline slices were recorded in parallel and after 50 min of control recording, 1 μM bicuculline was applied for a 40-min period.
Normalized PS AUC was averaged by slices for each experiment carried out in the same conditions. PS AUC (± SEM) is expressed as a function of time. The number of PS oscillations induced at the end of the bicuculline-exposure period was determined for each electrode and averaged by slices. The results are presented as mean of the last 2 min of application. Statistical significance was measured using two-way ANOVA analysis with Sidak’s multiple comparisons test, except for the 100 µM concentration because of its small slice number.

[2] = tested on: fundus isolated from guinea pig; experiment: In vitro Magnus assay, stomach fundus; details: 100 µM; ± SEM; p < 0.01
Protocol: as §1, §2

[3] = tested on: GI transit and gastric emptying; details: rats; dose-dependent manner; cited from earlier work
mice = details: 96 weeks; cited from earlier work
rats = details: two years; cited from earlier work

In the case of `O=C(/C=C/c1ccc(O)c(O)c1)O[C@H]1C[C@@](O)(C(=O)O)C[C@H](O)[C@@H]1O` [5-CQA, 5-O-caffeoylquinic acid], the “Tension in the ileum” value [1] was 0.293 ± 0.068 g and the “% Inhibition” value (Phosphodiesterase PDE4) was −6%.

With `COc1cc(/C=C/C(=O)O[C@H]2C[C@@](O)(C(=O)O)C[C@H](O)[C@@H]2O)ccc1O` [5-FQA, 5-O-feruloylquinic acid] the Additional spike number (rat hippocampal slices; 10 μM compound, co-exposure with 1 μM bicuculline) was “in the same range as the bicuculline control slices” and the “% Inhibition” value (Phosphodiesterase PDE4) was 2%.

For `COc1cc(/C=C/C(=O)O)ccc1O` [FA, ferulic acid], the Additional spike number (rat hippocampal slices; follow-up test, 1 µM alone, single application period) was “did not trigger multiple spikes”, the “Tension in the fundus” value [2] was 0.089 ± 0.005 g and the “% Inhibition” value (Phosphodiesterase PDE4) was 7%. The “Effect on GI transit and gastric emptying” value [3] was “significantly accelerates”.

For `O=C(O)/C=C/c1ccc(O)c(O)c1` [CA, caffeic acid], the “% Inhibition” value (Phosphodiesterase PDE4) is listed as 4%, the “Safety pharmacological toxicity on chronic exposure” value (mice) is listed as “no safety pharmacological toxicity” and the “Safety pharmacological toxicity on chronic exposure” value (rats) is listed as “no safety pharmacological toxicity”.
